Data reported in patent publication US20130165368A1, “ANTIMICROBIAL COMPOUNDS” (priority 2010, published 2013).

Tested on: MRSA NCTC 11939
Test: Synergy testing: disc susceptibility, zone of inhibition on agar containing Laureth derivative
Assay type: cell-based, Staphylococcus aureus
Experimental: There now follows data relating to a screen for synergistic interaction between Laureth derivatives [C12E1 to C12E8] and 12 conventional anti-staphylococcal agents.
Ethoxylated Lauryl Alcohol Derivative Preparation As plates containing quarter strength of the MIC of NCTC 11939 are needed, and therefore very small weights of each compound, they were prepared at twenty time strength in 20 mL volumes in plastic universals. Once prepared these solutions were diluted […] by adding 1 mL to 1 mL SDW, resulting a 2 mL volume at ten times strength. This was undertaken in duplicate to create two identical plates.
IST was prepared as previously stated in above. 18 mL agar was added to each universal and then poured into sterile Petri dishes. Control plates were prepared as stated above
A 0.5 McFarland suspension of MRSA NCTC 11939 was prepared using SDW. This was then adjusted to a concentration of 1.5×107 by adding 200 μL to 1.8 mL of SDW. Once diluted, a sterile cotton swab was used to spread the suspension evenly across the entire surface of each agar plate.
Twelve antibiotics discs were added to the plates, 6 per plate in a circle. The plates were then incubated aerobically at 37° C.
The diameter of the zones of clearance were measured and recorded in millimetres. The zones for each compound were compared to the control and to BSAC breakpoints.
A variation of zone size within 2 mm is within acceptable limits of assay reproducibility.

[1] = antibiotic disc in the presence of L1 [C12E1] 0.005 mmol/L
[2] = antibiotic disc in the presence of L2 [C12E2] 0.0275 mmol/L
[3] = antibiotic disc in the presence of L3 [C12E3] 0.01375 mmol/L
[4] = antibiotic disc in the presence of L4 [C12E4] 0.0275 mmol/L
[5] = antibiotic disc in the presence of L5 [C12E5] 0.0275 mmol/L
[6] = antibiotic disc in the presence of L6 [C12E6] 0.0275 mmol/L
[7] = antibiotic disc in the presence of L7 [C12E7] 0.0275 mmol/L
[8] = antibiotic disc in the presence of L8 [C12E8] 0.055 mmol/L
[9] = antibiotic disc, Control, 0 mmol/L Laureth derivative

Row | Compound | Zone of Inhibition [1] | Zone of Inhibition [2] | Zone of Inhibition [3] | Zone of Inhibition [4] | Zone of Inhibition [5] | Zone of Inhibition [6] | Zone of Inhibition [7] | Zone of Inhibition [8] | Zone of Inhibition [9]
1 | CN[C@H](CC(C)C)C(=O)N[C@H]1C(=O)N[C@@H](CC(N)=O)C(=O)N[C@H]2C(=O)N[C@H]3C(=O)N[C@H](C(=O)N[C@H](C(=O)O)c4cc(O)cc(O)c4-c4cc3ccc4O)[C@H](O)c3ccc(c(Cl)c3)Oc3cc2cc(c3O[C@@H]2O[C@H](CO)[C@@H](O)[C@H](O)[C@H]2O[C@H]2C[C@](C)(N)[C@H](O)[C@H](C)O2)Oc2ccc(cc2Cl)[C@H]1O [Vancomycin] | 21 mm | 21 mm | 19 mm | 21 mm | 20 mm | 20 mm | 20 mm | 23 mm | 
2 | CN(C)[C@@H]1C(O)=C(C(N)=O)C(=O)[C@@]2(O)C(O)=C3C(=O)c4c(O)cccc4[C@@](C)(O)[C@H]3C[C@@H]12 [Tetracycline] | 34 mm | 35 mm | 35 mm | 36 mm | 32 mm | 35 mm | 36 mm |  | 
3 | O=C(N[C@H](CO)[C@H](O)c1ccc([N+](=O)[O-])cc1)C(Cl)Cl [Chloramphenicol] | 22 mm | 22 mm | 24 mm | 23 mm | 25 mm | 23 mm | 22 mm | 23 mm | 
4 | CC(=O)O[C@H]1C[C@@]2(C)[C@@H](C[C@@H](O)[C@H]3[C@@]4(C)CC[C@@H](O)[C@@H](C)[C@@H]4CC[C@@]32C)/C1=C(\CCC=C(C)C)C(=O)O [Fusidic Acid] | 36 mm | 37 mm | 35 mm | 38 mm | 37 mm | 39 mm | 37 mm |  | 
5 | Gentamicin | 27 mm | 27 mm | 27 mm | 29 mm | 28 mm | 30 mm | 30 mm | 33 mm | 28 mm
6 | C/C(=C\C(=O)OCCCCCCCCC(=O)O)C[C@@H]1OC[C@H](C[C@@H]2O[C@H]2[C@@H](C)[C@H](C)O)[C@@H](O)[C@H]1O [Muprocin] | 32 mm | 33 mm | 32 mm | 34 mm | 32 mm | 33 mm | 34 mm | 35 mm | 33 mm
7 | CO[C@H]1/C=C/O[C@@]2(C)Oc3c(C)c(O)c4c(O)c(c(/C=N/N5CCN(C)CC5)c(O)c4c3C2=O)NC(=O)/C(C)=C\C=C\[C@H](C)[C@H](O)[C@@H](C)[C@@H](O)[C@@H](C)[C@H](OC(C)=O)[C@@H]1C [Rifampicin] | 37 mm | 37 mm | 37 mm | 40 mm | 39 mm | 40 mm | 39 mm |  | 
8 | CC[C@H]1OC(=O)[C@H](C)[C@@H](O[C@H]2C[C@@](C)(OC)[C@@H](O)[C@H](C)O2)[C@H](C)[C@@H](O[C@@H]2O[C@H](C)C[C@H](N(C)C)[C@H]2O)[C@](C)(O)C[C@@H](C)C(=O)[C@H](C)[C@@H](O)[C@]1(C)O [Erythromycin] | 7 mm | 7 mm | 7 mm | 8 mm | 7 mm | 7 mm | 7 mm | 8 mm | 
9 | CCC[C@@H]1C[C@@H](C(=O)N[C@@H]([C@H]2O[C@H](SC)[C@H](O)[C@@H](O)[C@H]2O)[C@H](C)Cl)N(C)C1 [Clindamycin] | 33 mm | 32 mm | 32 mm | 34 mm | 33 mm | 33 mm | 34 mm | 35 mm | 
10 | COc1cc(Cc2cnc(N)nc2N)cc(OC)c1OC [Trimethoprim] | 29 mm | 30 mm | 28 mm | 31 mm | 30 mm | 31 mm | 30 mm |  | 
11 | COc1c(N2C[C@@H]3CCCN[C@@H]3C2)c(F)cc2c(=O)c(C(=O)O)cn(C3CC3)c12 [Moxyfloxacin] | 14 mm | 14 mm | 16 mm | 14 mm | 13 mm | 14 mm | 18 mm |  | 15 mm
